Data reported in patent US6218393A, “Anthranilic acid derivatives as multi drug resistance modulators” (priority 1997, dated 2001).

Legend:
AR 1.0 cells [1] = assay: Drug accumulation assay: daunorubicin accumulation in AR 1.0 cells; format: cell-based; conditions: Mus musculus, 100% = accumulation with verapamil 100 μM, 1 hr, 37° C.
Experimental: (§1) The EMT6 mouse mammary carcinoma cell line and the MDR resistant subline AR 1.0 were cultured in RPMI 1640 medium containing 10% foetal calf serum and 2 mM glutamine at 37° C. in 5% CO2. Cells were passaged between 1 in 200 and 1 in 2000 in the case of the parental cell line and between 1 in 20 and 1 in 200 in the case of the MDR resistant subline, after trypsinisation (0.25% trypsin, 0.2 gl^-1, EDTA).
AR 1.0 cells were seeded 48 hours prior to assay into 96 well opaque culture plates (Canberra Packard).

AR 1.0 cells [2] = assay: Potentiation index with doxorubicin titration; format: cell-based, mouse; conditions: for Potentiation Index at RMA concentration 10 nM: Table C1, RMA 10 nM; for Potentiation Index at RMA concentration 30 nM: Table C1, RMA 30 nM; for Potentiation Index at RMA concentration 50 nM: Table C1, RMA 50 nM; for Potentiation Index at RMA concentration 100 nM: Table C1, RMA 100 nM
Experimental: as §1, with “EDTA). […]” for “EDTA).”
(b) Cells were cultured for four days with a titration of doxorubicin (0.263 nM-17.24 μM) in the presence of a fixed concentration of each compound. Proliferation was quantified as described by Skehen et al, loc cit. The IC50 (concentration required to reduce proliferation to 50% of the untreated controls) for doxorubicin alone and with each compound were derived and used to calculate the potentiation index (PI): [formula]

IC50 (AR 1.0 cells [1]) [nM]	SMILES	Potentiation Index at RMA concentration 10 nM (AR 1.0 cells [2])	Potentiation Index at RMA concentration 30 nM (AR 1.0 cells [2])	Potentiation Index at RMA concentration 50 nM (AR 1.0 cells [2])	Potentiation Index at RMA concentration 100 nM (AR 1.0 cells [2])	Potentiation Index at RMA concentration 20 nM (AR 1.0 cells [2]; Table C1, RMA 20 nM)
295	COc1cc(CN(C)CCc2ccc(NC(=O)c3ccccc3NC(=O)c3cnc4ccccc4c3)cc2)ccc1OC(C)C [compound 9646, Quinoline-3-carboxylic acid [2-(4-{2-[(4-isopropoxy-3-methoxy-benzyl)-methyl-amino]-ethyl}-phenylcarbamoyl)-phenyl]-amide]	1.0	1.1	1.3	4.8	
64	COc1ccc(CN(C)Cc2ccc(NC(=O)c3ccccc3NC(=O)c3cnc4ccccc4c3)cc2)cc1OC(C)C [compound 9652, Quinoline-3-carboxylic acid [2-(4-{[(3-isopropoxy-4-methoxy-benzyl)-methyl-amino]-methyl}-phenylcarbamoyl)-phenyl]-amide]		1.2	1.8	7.6	
278	O=C(Nc1ccccc1C(=O)Nc1ccc(CCN2Cc3ccccc3C2)cc1)c1cnc2ccccc2c1 [compound 9626, Quinoline-3-carboxylic acid (2-{4-[2-(1,3-dihydro-isoindol-2-yl)-ethyl]-phenylcarbamoyl}-phenyl)-amide]	1.2	4	8	27	
113	COc1cc2c(cc1OC)CN(CCc1ccc(NC(=O)c3cscc3NC(=O)c3cnc4ccccc4c3)cc1)CC2 [compound 9616, Quinoline-3-carboxylic acid (4-{4-[2-(6,7-dimethoxy-3,4-dihydro-1H-isoquinolin-2-yl)-ethyl]-phenylcarbamoyl}-thiophen-3-yl)-amide]	13	142	143	185	
552	COc1cc2c(cc1OC)CN(CCc1ccc(NC(=O)c3ccccc3NC(=O)c3coc(C)n3)cc1)CC2 [compound 9638, 2-Methyl-oxazole-4-carboxylic acid (2-{4-[2-(6,7-dimethoxy-3,4-dihydro-1H-isoquinolin-2-yl)-ethyl]-phenylcarbamoyl}-phenyl)-amide]		1.1	1.5	2.6	
593	COc1cc2c(cc1OC)CN(CCc1cccc(NC(=O)c3ccccc3NC(=O)c3cnc4ccccc4c3)c1)CC2 [compound 9633, Quinoline-3-carboxylic acid (2-{3-[2-(6,7-dimethoxy-3,4-dihydro-1H-isoquinolin-2-yl)-ethyl]-phenylcarbamoyl}-phenyl)-amide]	1.0	1.3	3.4	13.7	
199	COc1cc2c(cc1OC)CN(CCc1ccc(NC(=O)c3cccnc3NC(=O)c3cnc4ccccc4n3)cc1)CC2 [compound 9600, Quinoxaline-2-carboxylic acid (3-{4-[2-(6,7-dimethoxy-3,4-dihydro-1H-isoquinolin-2-yl)-ethyl]-phenylcarbamoyl}-pyridin-2-yl)-amide]			1.98	2.55	
235	COc1ccc(CCN(C)CCc2ccc(NC(=O)c3ccccc3NC(=O)c3cnc4ccccc4c3)cc2)cc1OC [compound 9630, Quinoline-3-carboxylic acid {2-[4-(2-{[2-(3,4-dimethoxy-phenyl)-ethyl]-methyl-amino}-ethyl)-phenylcarbamoyl]-phenyl}-amide]	1	2	6	26	
203	COc1cc2c(cc1OC)CN(CCc1ccc(NC(=O)c3cscc3NC(=O)c3ccc(C)nc3)cc1)CC2 [compound 9617, N-(4-{4-[2-(6,7-Dimethoxy-3,4-dihydro-1H isoquinolin-2-yl)-ethyl]-phenylcarbamoyl}-thiophen-3-yl)-6-methyl-nicotinamide]	1.5	4	15	81	
179	CN(CCc1ccc(NC(=O)c2ccccc2NC(=O)c2cnc3ccccc3c2)cc1)Cc1ccc2c(c1)OCCO2 [compound 9645, Quinoline-3-carboxylic acid [2-(4-{2-[(2,3-dihydro-benzo [1,4]dioxin-6-ylmethyl)-methyl-amino]-ethyl}-phenylcarbamoyl)-phenyl]-amide]	1.0	1.3	2.1	7.2	
425	CN(CCc1ccc(NC(=O)c2ccccc2NC(=O)c2cnc3ccccc3c2)cc1)Cc1ccc(F)c(F)c1 [compound 9643, Quinoline-3-carboxylic acid [2-(4-{2-[(3,4-difluoro-benzyl)-methyl-amino]-ethyl}-phenylcarbamoyl)-phenyl]-amide]	1.0	1.5	2.4	6.7	
188	COc1cc(CN(C)CCc2ccc(NC(=O)c3ccccc3NC(=O)c3cnc4ccccc4c3)cc2)ccc1O [compound 9649, Quinoline-3-carboxylic acid [2-(4-{2-[(4-hydroxy-3-methoxy-benzyl)-methyl-amino]-ethyl}phenylcarbamoyl)-phenyl]-amide]	53	46	60	66	
108	COc1ccc(CN(C)CCc2ccc(NC(=O)c3ccccc3NC(=O)c3cnc4ccccc4c3)cc2)cc1OC(C)C [compound 9639, Quinoline-3-carboxylic acid [2-(4-{2-[(3-isopropoxy-4-methoxy-benzyl)-methyl-amino]-ethyl}-phenylcarbamoyl)-phenyl]-amide]	2.6	34	78	136	
453	COc1cc2c(cc1OC)CN(CCSc1ccc(NC(=O)c3ccccc3NC(=O)c3cnc4ccccc4c3)cc1)CC2 [compound 9621, Quinoline-3-carboxylic acid (2-{4-[2-(6,7-dimethoxy-3 ,4-dihydro-1H-isoquinolin-2-yl)-ethylsulfanyl]-phenylcarbamoyl}-phenyl)-amide]	1.0	1.6	4.4	25	1.3
1.9	CCCCN(CCc1ccc(NC(=O)c2ccccc2NC(=O)c2cnc3ccccc3c2)cc1)Cc1ccc(OC)c(OC)c1 [compound 9641, Quinoline-3-carboxylic acid [2-(4-{2-[butyl-(3,4-dimethoxy-benzyl)-amino]-ethyl}-phenylcarbamoyl)-phenyl]-amide]	1.5	17	46	162	
669	COc1cc2c(cc1OC)CN(CCc1ccc(NC(=O)c3ccccc3NC(=O)c3csc(C)n3)cc1)CC2 [compound 9635, 2-Methyl-thiazole-4-carboxylic acid (2-{4-[2-(6,7-dimethoxy-3,4-dihydro-1H-isoquinolin-2-yl)-ethyl]-phenylcarbamoyl}-phenyl)-amide]		1.3	2	7	
175	COc1ccc(CN(C)CCc2ccc(NC(=O)c3ccc(Cl)cc3NC(=O)c3cnc4ccccc4c3)cc2)cc1OC [compound 9663, Quinoline-3-carboxylic acid [5-chloro-2-(4-{2-[(3-4-dimethoxy-benzyl)-methyl-amino]-ethyl}-phenylcarbamoyl)-phenyl]-amide]	50	80	74	82	

SMILES	IC50 (AR 1.0 cells [1]) [nM]	Potentiation Index at RMA concentration 10 nM (AR 1.0 cells [2])	Potentiation Index at RMA concentration 30 nM (AR 1.0 cells [2])	Potentiation Index at RMA concentration 50 nM (AR 1.0 cells [2])	Potentiation Index at RMA concentration 100 nM (AR 1.0 cells [2])	Potentiation Index at RMA concentration 20 nM (AR 1.0 cells [2]; Table C1, RMA 20 nM)
CCCCOc1ccc(CN(C)CCc2ccc(NC(=O)c3ccccc3NC(=O)c3cnc4ccccc4c3)cc2)cc1OC [compound 9642, Quinoline-3-carboxylic acid [2-(4-{2-[(4-butoxy-3-methoxy-benzyl)-methyl-amino]-ethyl}-phenylcarbamoyl)-phenyl]-amide]	341	1.0	1.2	2.5	14	
